Reference: ChEMBL document CHEMBL5344425, “Discovery of 5-(Pyrimidin-2-ylamino)-1H-indole-2-carboxamide Derivatives as Nur77 Modulators with Selective and Potent Activity Against Triple-Negative Breast Cancer” (J Med Chem, 2023)
Activity calls are given as the source filed them. The rule behind the calls is not given here.

Experiments:
[1] = Cytotoxicity against human MCF-10A cells assessed as inhibition of cell growth measured after 24 hrs by MTT assay; format: toxicity, cell-based
[2] = system: MDA-MB-231; test: Antiproliferative activity against human MDA-MB-231 cells assessed as inhibition of cell growth measured after 24 hrs by MTT assay; format: functional, cell-based; details: MDA-MB-231, 24 h
[3] = system: T47D; test: Antiproliferative activity against human T47D cells assessed as inhibition of cell growth measured after 24 hrs by MTT assay; format: functional, cell-based
[4] = target: T1, Nuclear receptor subfamily 4immunitygroup A member 1 (Homo sapiens, UniProt P22736); test: Binding affinity to His-tagged Nur77 ligand binding domain (unknown origin) at 10 uM by surface plasmon resonance assay; details: filed as modulator
[5] = target: T1, Nuclear receptor subfamily 4immunitygroup A member 1; test: Antagonist activity at Nur77 ligand binding domain (unknown origin) transfected in HEK293T cells cotransfected with pG5-Luc assessed as inhibition of receptor transcriptional activity at 2 uM measured after 12 hrs by luciferase reporter gene assay; format: cell-based; details: filed as antagonist
[6] = Toxicity in Zebra fish AB embryo assessed as mortality rate at 1.25 to 5 uM measured after 24 hrs; parameters: species or system Danio rerio; details: zebrafish, dose 1.25-5 µM
[7] = Toxicity in Zebra fish AB embryo assessed as mortality rate at 1.25 uM measured after 24 to 72 hrs; parameters: species or system Danio rerio; details: AB, zebrafish, time 24-72 hrs
[8] = target: T1, Nuclear receptor subfamily 4immunitygroup A member 1; test: Binding affinity to His-tagged Nur77 ligand binding domain (unknown origin) by surface plasmon resonance assay

T1 sequence (P22736 whole entry, the tested form may be a part): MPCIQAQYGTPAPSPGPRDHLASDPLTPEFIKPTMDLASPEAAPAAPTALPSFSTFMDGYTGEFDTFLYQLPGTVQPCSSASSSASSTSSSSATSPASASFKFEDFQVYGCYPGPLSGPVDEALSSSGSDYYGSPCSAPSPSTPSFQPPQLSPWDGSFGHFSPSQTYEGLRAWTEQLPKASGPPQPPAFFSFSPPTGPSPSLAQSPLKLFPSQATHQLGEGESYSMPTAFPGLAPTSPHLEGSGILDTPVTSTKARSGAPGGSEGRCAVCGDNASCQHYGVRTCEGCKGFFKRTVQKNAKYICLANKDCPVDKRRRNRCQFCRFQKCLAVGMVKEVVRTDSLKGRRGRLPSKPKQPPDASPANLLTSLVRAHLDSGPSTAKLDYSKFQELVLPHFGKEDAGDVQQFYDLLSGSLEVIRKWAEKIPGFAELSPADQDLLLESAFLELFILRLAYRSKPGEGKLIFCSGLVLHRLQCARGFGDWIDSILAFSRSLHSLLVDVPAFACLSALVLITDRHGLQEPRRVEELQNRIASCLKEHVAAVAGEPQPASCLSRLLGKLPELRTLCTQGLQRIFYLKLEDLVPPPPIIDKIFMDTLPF

| SMILES | IC50 at 24 h [1] [µM] | IC50 [2] [µM] | IC50 [3] [µM] | Activity [4] | inhibition [5] | mortality at 24 h, up to 5 µM [6] [%] | mortality at 1.25 µM [7] [%] | Kd [8] [µM] |
| --- | --- | --- | --- | --- | --- | --- | --- | --- |
| Cc1nc(-c2ccnc(Nc3ccc4[nH]c(C(=O)NCCN5CCCC5)cc4c3)n2)c(C)s1 | > 20 | > 20 | > 20 |  |  |  |  |  |
| CN(C)CCNC(=O)c1cc2cc(Nc3nccc(-c4cccnc4)n3)ccc2[nH]1 | > 20 | 3.12 | > 20 |  |  |  |  |  |
| Cc1nc(-c2ccnc(Nc3ccc4[nH]c(C(=O)NCCCN(C)C)cc4c3)n2)c(C)s1 | 15.9 | > 20 | 16 |  |  |  |  |  |
| CCN(CC)CCCNC(=O)c1cc2cc(Nc3nccc(-c4cccnc4)n3)ccc2[nH]1 | > 20 | 10.5 | > 20 |  |  |  |  |  |
| COc1ccc2[nH]cc(CCNC(=O)c3cc4cc(Nc5nccc(-c6cccnc6)n5)ccc4[nH]3)c2c1 | > 20 | 18.2 | 8.36 |  |  |  |  |  |
| Cc1nc(-c2ccnc(Nc3ccc4[nH]c(C(=O)NCCN5CCOCC5)cc4c3)n2)c(C)s1 | 15.4 | > 20 | > 20 |  |  |  |  |  |
| CN(C)CCCNC(=O)c1cc2cc(Nc3nccc(-c4cccs4)n3)ccc2[nH]1 | > 20 | > 20 | 4.28 | Active |  |  |  |  |
| Cc1nc(-c2ccnc(Nc3ccc4[nH]c(C(=O)NCCN(C)C)cc4c3)n2)c(C)s1 | 15 | > 20 | 3.65 | Active |  |  |  |  |
| COc1ccccc1-c1ccnc(Nc2ccc3[nH]c(C(=O)NCCCN(C)C)cc3c2)n1 | > 20 | 4.79 | > 20 |  |  |  |  |  |
| CCN(CC)CCCNC(=O)c1cc2cc(Nc3nccc(-c4cc(OCc5ccccc5)cc(OCc5ccccc5)c4)n3)ccc2[nH]1 | 2.89 | > 20 | 1.89 |  |  |  |  |  |
| CN(C)CCCNC(=O)c1cc2cc(Nc3nccc(-c4cc(OCc5ccccc5)cc(OCc5ccccc5)c4)n3)ccc2[nH]1 | 3.9 | 1.69 | 11.4 |  |  |  |  |  |
| O=C(NCCN1CCCCC1)c1cc2cc(Nc3nccc(-c4cccc(OCc5ccccc5)c4)n3)ccc2[nH]1 | 1.76 | 5.41 | > 20 |  |  |  |  |  |
| CN(C)CCCNC(=O)c1cc2cc(Nc3nccc(-c4ccc(Cl)s4)n3)ccc2[nH]1 | 7.43 | 6.14 | 4.29 | Active |  |  |  |  |
| CCN(CC)CCCNC(=O)c1cc2cc(Nc3nccc(-c4ccccc4)n3)ccc2[nH]1 | 13 | 7.24 | 3.24 | Active |  |  |  |  |
| CCN(CC)CCCNC(=O)c1cc2cc(Nc3nccc(-c4ccc(C(F)(F)F)cc4)n3)ccc2[nH]1 | 6.57 | 6.52 | 6.19 |  |  |  |  |  |
| CCN(CC)CCCNC(=O)c1cc2cc(Nc3nccc(-c4cccs4)n3)ccc2[nH]1 | 14.3 | 3.27 | 8.41 | Active |  |  |  |  |
| CC1=C(O)C(=O)C=C2C1=CC=C1[C@@]2(C)CC[C@@]2(C)[C@@H]3C[C@](C)(C(=O)O)CC[C@]3(C)CC[C@]12C [CELASTROL] | 5.45 |  | > 20 | Active | Active | 100 | 100 |  |
| CCCCCNC(=O)c1cc2cc(Nc3nccc(-c4ccccc4)n3)ccc2[nH]1 | > 20 | 17.3 | > 20 | Active |  |  |  |  |

| SMILES | IC50 at 24 h [1] [µM] | IC50 [2] [µM] | IC50 [3] [µM] | Activity [4] | inhibition [5] | mortality at 24 h, up to 5 µM [6] [%] | mortality at 1.25 µM [7] [%] | Kd [8] [µM] |
| --- | --- | --- | --- | --- | --- | --- | --- | --- |
| CCCCN(CCCC)CCCNC(=O)c1cc2cc(Nc3nccc(-c4cccnc4)n3)ccc2[nH]1 | 6.48 | 4.3 | 10.6 | Active |  |  |  |  |
| CN(C)CCCNC(=O)c1cc2ccc(Nc3nccc(-c4cccnc4)n3)cc2[nH]1 | > 20 | 3.09 | > 20 | Active |  |  |  | 0.354 |
| COc1ccc(-c2ccnc(Nc3ccc4[nH]c(C(=O)NCCN5CCN(C)CC5)cc4c3)n2)cc1OC | > 20 | 17.4 | 14.4 |  |  |  |  |  |
| CCN(CC)CCCNC(=O)c1cc2cc(Nc3nccc(-c4ccc(Cl)s4)n3)ccc2[nH]1 | 5.54 | 6.7 | 2.3 | Active |  |  |  |  |
| CN(C)CCCNC(=O)c1cc2cc(Nc3nccc(-c4ccc(C(F)(F)F)cc4)n3)ccc2[nH]1 | 2.09 | 0.91 | 9.23 |  |  |  |  |  |
| O=C(N/N=C/c1ccncc1)c1ccc(Nc2ccnc3ccccc23)cc1 |  |  |  |  |  |  |  | 1.17 |
| CCN(CC)CCCNC(=O)c1cc2cc(Nc3nccc(-c4ccc(OC)c(OC)c4)n3)ccc2[nH]1 | 3.57 | 5.98 | 11.4 | Active |  |  |  |  |
| COc1ccc(-c2ccnc(Nc3ccc4[nH]c(C(=O)NCCN5CCCC5)cc4c3)n2)cc1OC | 9.71 | 4.02 | 3.26 |  |  |  |  |  |
| CCN(CC)CCCNC(=O)c1cc2cc(Nc3nccc(-c4cccc(OCc5ccccc5)c4)n3)ccc2[nH]1 | > 20 | > 20 | > 20 |  |  |  |  |  |
| CN(C)CCCNC(=O)c1cc2cc(Nc3nccc(-c4ccccc4)n3)ccc2[nH]1 | > 20 | 8.87 | 7.88 | Active |  |  |  |  |
| CN(C)CCNC(=O)c1cc2cc(Nc3nccc(-c4ccc(C(F)(F)F)cc4)n3)ccc2[nH]1 | 2.12 | 10.3 | 6.71 |  |  |  |  |  |
| CCCCN(CCCC)CCCNC(=O)c1cc2cc(Nc3nccc(-c4ccccc4)n3)ccc2[nH]1 | 4.96 | 7.8 | 15.2 |  |  |  |  |  |
| CN(C)CCNC(=O)c1cc2cc(Nc3nccc(-c4cccc(OCc5ccccc5)c4)n3)ccc2[nH]1 | > 20 | > 20 | > 20 |  |  |  |  |  |
| CCN(CC)CCCNC(=O)c1cc2cc(Nc3nccc(-c4ccccc4OC)n3)ccc2[nH]1 | > 20 | 8.32 | 13 | Active |  |  |  |  |
| CN(C)CCNC(=O)c1cc2cc(Nc3nccc(-c4ccccc4)n3)ccc2[nH]1 | > 20 | 8.04 | > 20 | Active |  |  |  |  |
| CC(C)N(CCNC(=O)c1cc2cc(Nc3nccc(-c4ccccc4)n3)ccc2[nH]1)C(C)C | 4.05 | 11.1 | 9.41 |  |  |  |  |  |
| COc1ccc(-c2ccnc(Nc3ccc4[nH]c(C(=O)NCCCN(C)C)cc4c3)n2)cc1OC | 15 | 2.58 | 6.01 | Active |  |  |  |  |
| CCN(CC)CCCNC(=O)c1cc2cc(Nc3nccc(-c4nc(C)sc4C)n3)ccc2[nH]1 | 19.2 | > 20 | > 20 | Active |  |  |  |  |
